Literature values in US20060251750A1, “Soy formulations and their use in skin care” (priority 2002, published 2006).

How the values were obtained:
photocarcinogenesis = conditions: hairless mice; both topical and oral administration
UV radiation = conditions: lotions
squamous cell carcinomas = conditions: daily topical applications of lotions

| Compound | initiation and promotion of photocarcinogenesis (photocarcinogenesis) | tumor incidence and multiplicity (photocarcinogenesis) | inflammatory edema reactions induced by UV radiation (UV radiation) | suppression of contact hypersensitivity induced by UV radiation (UV radiation) | proportion of tumors progressing from benign papillomas to malignant squamous cell carcinomas (squamous cell carcinomas) | size of these carcinomas (squamous cell carcinomas) |
| --- | --- | --- | --- | --- | --- | --- |
| O=c1c(-c2ccc(O)cc2)coc2cc(O)cc(O)c12 [genistein] | inhibit | reduction | reduce | reduce |  |  |
| Oc1ccc([C@H]2COc3cc(O)ccc3C2)cc1 [equol] |  |  | reduce | reduce | reduce | reduce |
| Oc1ccc(C2=Cc3ccc(O)cc3OC2)cc1 [dehydroequol] |  |  | reduce | reduce |  |  |
| isoequol |  |  | reduce | reduce |  |  |
